Test results as given in US6743446B2, “Methods for stabilizing biologically active agents encapsulated in biodegradable controlled-release polymers” (The Ohio State University Research Foundation, priority 1999, dated 2004).
Values joined by “and” are separate entries in the source; they are usually repeats but may differ in a detail not shown here. Equal entries are not always repeated. Structures can show the parent of a compound that is named as a salt. Where two headings read alike, the source gives them in different places.

Tests used:
[1] = pH measurement of saturated basic salts in water; format: physicochemical; details: excess basic salt suspended in water, 37° C., 7 days
Method: The suspension was then incubated at 37° C. for 7 days. The pH of the supernatant was determined with a Corning 430 pH meter (Corning Inc., NY).

[2] = reference (23); cited from earlier work
[3] = pH of saturated basic salt suspension after addition of 1 N HCl; format: physicochemical; details: acid added to the saturated suspension with excess salt, 37° C., 3 days
From the text: The difference of the neutralization effect from the salts is also reflected in the different water contents of their PLGA devices.

[4] = pH of the release medium during incubation of polymer devices; format: physicochemical; details: 3% BSA/PLGA50/50 (0.20 dl/g) microspheres with 3% base, after 35 days
From the text: This effect was confirmed by changes in pH in the release medium and alteration of the PLGA degradation rate.
The pH of the release medium was monitored by a Corning 430 pH meter (Corning Inc., NY) at each sampling interval.

[5] = VCR and VBL stability and release in PLGA microspheres by HPLC; format: physicochemical
Method: All other reagents and solvents were of analytical grade or purer and purchased from commercial suppliers. Microspheres Preparation Microspheres were prepared by a standard oil-in-oil emulsion-solvent extraction method (17). […] The resulting solution or suspension was added drop-wise to 25 ml of oil (95% cottonseed oil and 5% Span 85 emulsifier) stirred at 500 rpm and room temperature. After 2.5 h of microsphere hardening. 40 ml of petroleum ether (bp: 50 to 100° C.) were added to the emulsion to extract CAN. The emulsion was stirred for additional 15 min, the particles were collected by filtration, and washed 3 times with petroleum ether. The hardened microspheres were flash-frozen with liquid nitrogen and lyophilized with a Labconco Freezone 6 system for 1 day.
The HPLC system consisted of the following: a 510 pump, a 717 Plus autosampler, and a 486 UV detector (waters, Milford, Mass.). […] The mobile phase was composed of aqueous solution of sodium phosphate (10 mM) and methanol 40:60 (v/v) (pH 7.0). For UV detection, the wavelength was set to 298 nm.
Drug release from microspheres was carried out in PBS (127 mM NaCl, 3 mM KCl, 8 mM Na2HPO4, 1 mM KH2PO4, pH 7.4) containing Tween 80 (0.02% w/w/) (PBST) at 37° C. under perfect sink conditions. […] Microspheres were weighed and dissolved in a 50% (v/v) ACN water solution. The precipitated polymer and salts were spun down by brief centrifugation. An aliquot of the supernatant containing drug was removed and analyzed by HPLC.

[6] = aqueous solution; cited from earlier work

SMILES | pH of saturated solution [1] | pH of saturated solution [2] | pH after addition of 100 μl of 1 N HCl [3] | pH of the release medium [4] | drug degraded to the basic product during microsphere preparation ([5]; VCR PLGA microspheres with co-encapsulated base) [%] | pH of maximum stability [6] | stability of encapsulated drug ([5]; PLGA (50% D,L lactide content) microspheres) | drug remaining intact ([5]; VCR PLGA microspheres with ZnCO3, after 3 weeks) [%] | drug remaining intact ([5]; VCR PLGA microspheres with ZnCO3, after 4 weeks) [%] | drug remained in its native form ([5]; VCR in PLGA microspheres without base, 14 days incubation at 37° C.) [%]
[Mg+2].[OH-].[OH-] [Mg(OH)2] | 9.97 and 9.76 | 9.8 | 8.99 | < 4.5 | 12 | – | – | – | – | –
CC[C@]1(O)C[C@H]2CN(CCc3c([nH]c4ccccc34)[C@@](C(=O)OC)(c3cc4c(cc3OC)N(C=O)[C@H]3[C@@](O)(C(=O)OC)[C@H](OC(C)=O)[C@]5(CC)C=CCN6CC[C@]43[C@@H]65)C2)C1 [VCR, Vincristine sulfate] | – | – | – | – | – | ~4.5 | becomes unstable | 97 | 92 | 23
